system: Alopecurus myosuroides (ALOMY); assay: Example B pre-emergence herbicidal activity; type: in vivo; settings: 312 h, rate 250 g/ha, evaluated after 13 days, read-out: Pre-Emergence Activity ALOMY (100=total damage to plant; 0=no damage to plant)
Procedure: (§1) Seeds of a variety of test species were sown in standard soil in pots. After cultivation for one day (pre-emergence) or after 8 days cultivation (post-emergence) under controlled conditions in a glasshouse (at 24/16° C., day/night; 14 hours light; 65% humidity), the plants were sprayed with an aqueous spray solution derived from the formulation of the technical active ingredient in acetone/water (50:50) solution containing 0.5% Tween 20 (polyoxyethelyene sorbitan monolaurate, CAS RN 9005-64-5).
(§2) The test plants were then grown in a glasshouse under controlled conditions in a glasshouse (at 24/16° C., day/night; 14 hours light; 65% humidity) and watered twice daily. After 13 days for pre and post-emergence, the test was evaluated (100=total damage to plant; 0=no damage to plant).
(§3) Alopecurus myosuroides (ALOMY), Avena fatua (AVEFA), Setaria faberi (SETFA), Echinochloa crus-galli (ECHCG), Solanum nigrum (SOLNI) and Amaranthus retoflexus (AMARE)

First: CCc1sc(-c2ccc(OC(F)F)cc2)nc1C1C(=O)[C@@H]2CC[C@@H](C2)C1=O (stereo partly shown) [Compound T44]
Second: CCc1sc(-c2cc(F)c(OC)cc2F)nc1C1C(=O)[C@@H]2CC[C@@H](C2)C1=O (stereo partly shown) [Compound T102]
The pest or weed control at 250 g/ha of the first is higher: 90% for the first, 50% for the second.

`Cc1sc(-c2cc(Cl)ccc2Cl)nc1C1C(=O)[C@@H]2CC[C@@H](C2)C1=O` (stereo partly shown) [Compound T73] and `CCOC(=O)COC1=C(c2sc(-c3ccc(Cl)cc3)nc2C)C(=O)[C@H]2CC[C@@H]1C2` [Compound P11] are the same in pest or weed control at 250 g/ha: 0% for the first, 0% for the second.

system: Amaranthus retoflexus (AMARE); assay: Example B pre-emergence herbicidal activity; type: in vivo; settings: Amaranthus retroflexus, 312 h, rate 250 g/ha, evaluated after 13 days, read-out: Pre-Emergence Activity AMARE (100=total damage to plant; 0=no damage to plant)
Procedure: as §1, §2, §3

`CCc1sc(-c2ccc(OC(F)F)cc2)nc1C1C(=O)[C@@H]2CC[C@@H](C2)C1=O` (stereo partly shown) [Compound T44] and `CCc1sc(-c2cc(F)c(OC)cc2F)nc1C1C(=O)[C@@H]2CC[C@@H](C2)C1=O` (stereo partly shown) [Compound T102] are the same in pest or weed control at 250 g/ha: 0% for the first, 0% for the second.

`Cc1sc(-c2cc(Cl)ccc2Cl)nc1C1C(=O)[C@@H]2CC[C@@H](C2)C1=O` (stereo partly shown) [Compound T73] and `CCOC(=O)COC1=C(c2sc(-c3ccc(Cl)cc3)nc2C)C(=O)[C@H]2CC[C@@H]1C2` [Compound P11] are the same in pest or weed control at 250 g/ha: 0% for the first, 0% for the second.

system: Avena fatua (AVEFA); assay: Example B pre-emergence herbicidal activity; type: in vivo; settings: 312 h, rate 250 g/ha, evaluated after 13 days, read-out: Pre-Emergence Activity AVEFA (100=total damage to plant; 0=no damage to plant)
Procedure: as §1, §2, §3

Going from `CCc1sc(-c2ccc(OC(F)F)cc2)nc1C1C(=O)[C@@H]2CC[C@@H](C2)C1=O` (stereo partly shown) [Compound T44] to `CCc1sc(-c2cc(F)c(OC)cc2F)nc1C1C(=O)[C@@H]2CC[C@@H](C2)C1=O` (stereo partly shown) [Compound T102], the pest or weed control at 250 g/ha falls from 60% to 30%.

Going from `Cc1sc(-c2cc(Cl)ccc2Cl)nc1C1C(=O)[C@@H]2CC[C@@H](C2)C1=O` (stereo partly shown) [Compound T73] to `CCOC(=O)COC1=C(c2sc(-c3ccc(Cl)cc3)nc2C)C(=O)[C@H]2CC[C@@H]1C2` [Compound P11], the pest or weed control at 250 g/ha falls from 50% to 0%.

system: Echinochloa crus-galli (ECHCG); assay: Example B pre-emergence herbicidal activity; type: in vivo; settings: 312 h, rate 250 g/ha, evaluated after 13 days, read-out: Pre-Emergence Activity ECHCG (100=total damage to plant; 0=no damage to plant)
Procedure: as §1, §2, §3

Going from `CCc1sc(-c2ccc(OC(F)F)cc2)nc1C1C(=O)[C@@H]2CC[C@@H](C2)C1=O` (stereo partly shown) [Compound T44] to `CCc1sc(-c2cc(F)c(OC)cc2F)nc1C1C(=O)[C@@H]2CC[C@@H](C2)C1=O` (stereo partly shown) [Compound T102], the pest or weed control at 250 g/ha falls from 100% to 70%.

`Cc1sc(-c2cc(Cl)ccc2Cl)nc1C1C(=O)[C@@H]2CC[C@@H](C2)C1=O` (stereo partly shown) [Compound T73] and `CCOC(=O)COC1=C(c2sc(-c3ccc(Cl)cc3)nc2C)C(=O)[C@H]2CC[C@@H]1C2` [Compound P11] are the same in pest or weed control at 250 g/ha: 0% for the first, 0% for the second.

system: Setaria faberi (SETFA); assay: Example B pre-emergence herbicidal activity; type: in vivo; settings: 312 h, rate 250 g/ha, evaluated after 13 days, read-out: Pre-Emergence Activity SETFA (100=total damage to plant; 0=no damage to plant)
Procedure: as §1, §2, §3

First: CCc1sc(-c2ccc(OC(F)F)cc2)nc1C1C(=O)[C@@H]2CC[C@@H](C2)C1=O (stereo partly shown) [Compound T44]
Second: CCc1sc(-c2cc(F)c(OC)cc2F)nc1C1C(=O)[C@@H]2CC[C@@H](C2)C1=O (stereo partly shown) [Compound T102]
The pest or weed control at 250 g/ha of the first is higher: 100% for the first, 50% for the second.

Compared with `Cc1sc(-c2cc(Cl)ccc2Cl)nc1C1C(=O)[C@@H]2CC[C@@H](C2)C1=O` (stereo partly shown) [Compound T73], `CCOC(=O)COC1=C(c2sc(-c3ccc(Cl)cc3)nc2C)C(=O)[C@H]2CC[C@@H]1C2` [Compound P11] is higher in pest or weed control at 250 g/ha: 0% for the first, 80% for the second.

system: Alopecurus myosuroides (ALOMY); assay: Example B post-emergence herbicidal activity; type: in vivo; settings: 312 h, rate 250 g/ha, evaluated after 13 days, read-out: Post-emergence activity ALOMY (100=total damage to plant; 0=no damage to plant)
Summary of the method: (§4)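 Glasshouse pot test, 24/16 °C, 14 h light, 65% RH, watered twice daily. Spray timing: day 1 pre-em., day 8 post-em.; vehicle acetone/water 50:50 + 0.5% Tween 20. Readout 13 d, 0–100% damage.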

`CCc1sc(-c2ccc(OC(F)F)cc2)nc1C1C(=O)[C@@H]2CC[C@@H](C2)C1=O` (stereo partly shown) [Compound T44] and `CCc1sc(-c2cc(F)c(OC)cc2F)nc1C1C(=O)[C@@H]2CC[C@@H](C2)C1=O` (stereo partly shown) [Compound T102] are the same in pest or weed control at 250 g/ha: 100% for the first, 100% for the second.

Compared with `Cc1sc(-c2cc(Cl)ccc2Cl)nc1C1C(=O)[C@@H]2CC[C@@H](C2)C1=O` (stereo partly shown) [Compound T73], `CCOC(=O)COC1=C(c2sc(-c3ccc(Cl)cc3)nc2C)C(=O)[C@H]2CC[C@@H]1C2` [Compound P11] is higher in pest or weed control at 250 g/ha: 0% for the first, 20% for the second.

system: Amaranthus retoflexus (AMARE); assay: Example B post-emergence herbicidal activity; type: in vivo; settings: Amaranthus retroflexus, 312 h, rate 250 g/ha, evaluated after 13 days, read-out: Post-emergence activity AMARE (100=total damage to plant; 0=no damage to plant)
Summary of the method: as §4

`CCc1sc(-c2ccc(OC(F)F)cc2)nc1C1C(=O)[C@@H]2CC[C@@H](C2)C1=O` (stereo partly shown) [Compound T44] and `CCc1sc(-c2cc(F)c(OC)cc2F)nc1C1C(=O)[C@@H]2CC[C@@H](C2)C1=O` (stereo partly shown) [Compound T102] are the same in pest or weed control at 250 g/ha: 0% for the first, 0% for the second.

`Cc1sc(-c2cc(Cl)ccc2Cl)nc1C1C(=O)[C@@H]2CC[C@@H](C2)C1=O` (stereo partly shown) [Compound T73] and `CCOC(=O)COC1=C(c2sc(-c3ccc(Cl)cc3)nc2C)C(=O)[C@H]2CC[C@@H]1C2` [Compound P11] are the same in pest or weed control at 250 g/ha: 0% for the first, 0% for the second.

system: Avena fatua (AVEFA); assay: Example B post-emergence herbicidal activity; type: in vivo; settings: 312 h, rate 250 g/ha, evaluated after 13 days, read-out: Post-emergence activity AVEFA (100=total damage to plant; 0=no damage to plant)
Summary of the method: as §4

`CCc1sc(-c2ccc(OC(F)F)cc2)nc1C1C(=O)[C@@H]2CC[C@@H](C2)C1=O` (stereo partly shown) [Compound T44] and `CCc1sc(-c2cc(F)c(OC)cc2F)nc1C1C(=O)[C@@H]2CC[C@@H](C2)C1=O` (stereo partly shown) [Compound T102] are the same in pest or weed control at 250 g/ha: 100% for the first, 100% for the second.

Compared with `Cc1sc(-c2cc(Cl)ccc2Cl)nc1C1C(=O)[C@@H]2CC[C@@H](C2)C1=O` (stereo partly shown) [Compound T73], `CCOC(=O)COC1=C(c2sc(-c3ccc(Cl)cc3)nc2C)C(=O)[C@H]2CC[C@@H]1C2` [Compound P11] is higher in pest or weed control at 250 g/ha: 0% for the first, 20% for the second.

system: Echinochloa crus-galli (ECHCG); assay: Example B post-emergence herbicidal activity; type: in vivo; settings: 312 h, rate 250 g/ha, evaluated after 13 days, read-out: Post-emergence activity ECHCG (100=total damage to plant; 0=no damage to plant)
Summary of the method: as §4

`CCc1sc(-c2ccc(OC(F)F)cc2)nc1C1C(=O)[C@@H]2CC[C@@H](C2)C1=O` (stereo partly shown) [Compound T44] and `CCc1sc(-c2cc(F)c(OC)cc2F)nc1C1C(=O)[C@@H]2CC[C@@H](C2)C1=O` (stereo partly shown) [Compound T102] are the same in pest or weed control at 250 g/ha: 100% for the first, 100% for the second.

Going from `Cc1sc(-c2cc(Cl)ccc2Cl)nc1C1C(=O)[C@@H]2CC[C@@H](C2)C1=O` (stereo partly shown) [Compound T73] to `CCOC(=O)COC1=C(c2sc(-c3ccc(Cl)cc3)nc2C)C(=O)[C@H]2CC[C@@H]1C2` [Compound P11], the pest or weed control at 250 g/ha rises from 20% to 80%.

system: Setaria faberi (SETFA); assay: Example B post-emergence herbicidal activity; type: in vivo; settings: 312 h, rate 250 g/ha, evaluated after 13 days, read-out: Post-emergence activity SETFA (100=total damage to plant; 0=no damage to plant)
Summary of the method: as §4

`CCc1sc(-c2ccc(OC(F)F)cc2)nc1C1C(=O)[C@@H]2CC[C@@H](C2)C1=O` (stereo partly shown) [Compound T44] and `CCc1sc(-c2cc(F)c(OC)cc2F)nc1C1C(=O)[C@@H]2CC[C@@H](C2)C1=O` (stereo partly shown) [Compound T102] are the same in pest or weed control at 250 g/ha: 100% for the first, 100% for the second.

Compared with `Cc1sc(-c2cc(Cl)ccc2Cl)nc1C1C(=O)[C@@H]2CC[C@@H](C2)C1=O` (stereo partly shown) [Compound T73], `CCOC(=O)COC1=C(c2sc(-c3ccc(Cl)cc3)nc2C)C(=O)[C@H]2CC[C@@H]1C2` [Compound P11] is higher in pest or weed control at 250 g/ha: 30% for the first, 80% for the second.

— US8598365B2, “Herbicides” (Syngenta Limited, priority 2007, dated 2013)
